From PMC10743726, “Preclinical Evaluation of a Novel High-Affinity Radioligand [^99mTc]Tc-BQ0413 Targeting Prostate-Specific Membrane Antigen (PSMA)” (International Journal of Molecular Sciences, 2023)

Legend:
PSMA = conditions: read-out: Equilibrium Dissociation Constant, KD; cited from earlier work
[1] = tested on: PSMA-positive PC3-pip xenografts; experiment: Biodistribution in PC3-pip tumor-bearing mice; conditions: 40 pmol/mouse
Experimental: All in vivo experiments were carried out on BALB/c nu/nu or NMRI mice purchased from Scanbur A/S (Sollentuna, Sweden). All animal studies were approved by the Ethics Committee for Animal Research in Uppsala (Sweden), following the national legislation on the protection of laboratory animals (permit 5.8.18-00473/2021, approved 26 February 2021). Prostate cancer xenografts expressing PSMA were established in BALB/c nu/nu mice via subcutaneous injection of PC3-pip cell suspension in PBS (10^7 cells/animal in 100 µL). For in vivo specificity control, 10^7 cells/animal PSMA-negative SKOV-3 or PC-3 cells were implanted. […] Four mice per data point were used in in vivo experiments; two mice per data point were used in SPECT/CT (^99mTc-labeled BQ0413) and PET/CT (^68Ga-labeled PSMA-11) imaging experiments.
Each mouse was intravenously injected with 40 pmol of [^99mTc]Tc-BQ0413 (60 kBq; mass of injected compound was adjusted with unlabeled tracer). The mice were euthanized after lethal intraperitoneal injection of ketamine/xylazine followed by exsanguination 1, 3, and 6 h pi. The organs of interest were collected, weighed, and measured for their activity content using the gamma counter. The uptake activity in organs was calculated as the percentage of injected activity per gram (%IA/g) for blood, salivary gland, lungs, liver, spleen, pancreas, stomach, small intestine, kidneys, tumor, muscle, and bone tissue and as %IA for the remaining carcass and the rest of the intestines with content.
Animals were euthanized, organs were collected, and activity uptake was measured according to the protocol described above.

O=C([O-])CN(CCN(CC(=O)[O-])Cc1cc(CCC(=O)NCCCCCC(=O)NCCCC[C@H](NC(=O)N[C@@H](CCC(=O)O)C(=O)O)C(=O)O)ccc1[O-])Cc1cc(CCC(=O)O)ccc1[O-].[68Ga+3].[OH3+] [[^68Ga]Ga-PSMA-11]
Kd (PSMA): 0.5 ± 0.2 nM | Activity in GI tract (with content) ([1]; 1 h pi): 1.6 ± 0.3 %IA/sample | Tumor-to-blood ratio ([1]; 1 h pi): 26 ± 9 | Tumor-to-bone ratio ([1]; 1 h pi): 34 ± 7 | Tumor-to-kidneys ratio ([1]; 1 h pi): 0.09 ± 0.02 | Tumor-to-liver ratio ([1]; 1 h pi): 30 ± 14 | Tumor-to-lungs ratio ([1]; 1 h pi): 7 ± 2 | Tumor-to-muscle ratio ([1]; 1 h pi): 38 ± 11 | Tumor-to-pancreas ratio ([1]; 1 h pi): 15 ± 3 | Tumor-to-salivary gland ratio ([1]; 1 h pi): 5 ± 1 | Tumor-to-small intestine ratio ([1]; 1 h pi): 42 ± 14 | Tumor-to-spleen ratio ([1]; 1 h pi): 0.7 ± 0.2 | Tumor-to-stomach ratio ([1]; 1 h pi): 29 ± 11 | Uptake in blood ([1]; 1 h pi): 0.8 ± 0.1 %IA/g | Uptake in bone ([1]; 1 h pi): 0.60 ± 0.06 %IA/g | Uptake in kidneys ([1]; 1 h pi): 226 ± 40 %IA/g | Uptake in liver ([1]; 1 h pi): 0.7 ± 0.2 %IA/g | Uptake in lungs ([1]; 1 h pi): 3.2 ± 0.6 %IA/g | Uptake in muscle ([1]; 1 h pi): 0.54 ± 0.08 %IA/g | Uptake in pancreas ([1]; 1 h pi): 1.3 ± 0.2 %IA/g | Uptake in salivary gland ([1]; 1 h pi): 4.4 ± 0.8 %IA/g | Uptake in small intestine ([1]; 1 h pi): 0.5 ± 0.1 %IA/g | Uptake in spleen ([1]; 1 h pi): 28 ± 4 %IA/g | Uptake in stomach ([1]; 1 h pi): 0.8 ± 0.3 %IA/g | Uptake in tumor ([1]; 1 h pi): 20 ± 3 %IA/g | Uptake in tumor ([1]; 3 h pi): 20 ± 3 %IA/g

[^177Lu]Lu-PSMA-617
Kd (PSMA): 0.24 nM
